Experiment [1] deals with T1, HDAC (Mouse Liver Extract).
T1 construct: Mouse liver enzyme (10 mg/ml) was diluted 1:6 with HDAC buffer
As to the kind of experiment: HDAC inhibition assay using Boc-Lys(Ac)-AMC substrate, mouse liver enzyme.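 On IC50: IC50 for inhibition of HDAC activity in mouse liver extract.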 It counts as biochemical. The procedure:
Histone Deacetylase (HDAC) Inhibition Assay using Boc-Lys (Ac)-AMC Substrate: Inhibition of HDAC has been implicated to modulate transcription and to induce apoptosis or differentiation in cancer cells. The fluorometric assay provides a fast and fluorescence based method that eliminates radioactivity, extractions or chromatography, as used in traditional assays. The assay is based on two steps. First, the HDAC fluorometric substrate, which comprises an acetylated lysine side chain, is incubated with a sample containing HDAC activity (Mouse Liver Extract). Deacetylation of the substrate sensitizes the substrate, in the second step; treatment with the Trypsin stop solution produces a fluorophore that can be easily analyzed using fluorescence plate reader.
Assay was done in 96-well black microplate and total volume of the assay was 100 μL. Mouse liver enzyme (10 mg/ml) was diluted 1:6 with HDAC buffer. Enzyme cocktail was made of 10 μL of diluted enzyme and 30 μL of HDAC buffer. 40 μl of enzyme cocktail followed by 10 μL of test compound (1 μM and 10 μM) or buffer (control) was added to each well. The plate was pre-incubated at 37° C. for 5 minutes. The HDAC reaction was started by adding 50 μl of HDAC substrate Boc-Lys (Ac)-AMC (Bachem AG, Switzerland). The plate was incubated at 37° C. for 30 minutes. […] Measuring the fluorescence at excitation wavelength of 360 nm and emission wavelength of 460 nm monitored the release of AMC. Buffer alone and substrate alone served as blank.

The test system of experiment [2] is NCI-H460 (lung) cells. The experiment in a line: Anti-cancer screen, growth inhibition (MTT). It is filed as cell-based. To be noted: Homo sapiens, 48 hours of incubation. On the procedure:
(§1) Experimental drugs were screened for anti-cancer activity in three cell fines using five concentrations for each compound.
(§2) Following 24-hour incubation, test compounds were added to the 96 well plates. Each plate contains one of the above cell lines and the following samples in triplicate: five different dilutions (0.01, 0.1, 1, 10 and 100 μM) of four test compounds, appropriate dilutions of a cytotoxic standard and growth medium (untreated) wells. […] SAHA was used as standard drug in these experiments.
(§3) For T0 measurement, 24 hours after seeding the cells, 20 μL of 3-(4.5-dimethyl-2-thiazolyl)-2,5-diphenyl-2H-tetrazolium (MTT) solution per well was added to the ‘T0’ plate and incubated for 3 hours at 37° C. in a CO2 incubator. The plate containing cells and test compounds was treated similarly after 48 hours of incubation. After 3 hours of MTT addition, well contents were aspirated carefully followed by addition of 150 μL DMSO per well. Plates were agitated to ensure dissolution of the formazan crystals in DMSO and absorbance was read at 570 nm (A570).

The test system of experiment [3] is HCT 116 (colon) cells. The experiment in a line: Anti-cancer screen, growth inhibition (MTT). It counts as cell-based. Conditions: Homo sapiens, HCT-116 cells, 48 hours of incubation. The procedure:
as §1, §2, §3

In experiment [4] the test system is U251 (glioma) cells. The experiment in a line: Anti-cancer screen, growth inhibition (MTT). It is filed as cell-based. To be noted: Homo sapiens, U-251 cells, 48 hours of incubation. The procedure:
as §1, §2, §3

Molecules are shown by their SMILES.

Consider `O=C(/C=C/c1ccc(/C=C(/C(=O)Nc2ccccc2)c2cccc(OC3CCCC3)c2)cc1)NO` [Example 44, 2-(3-Cyclopentyloxyphenyl)-3-(4-((1E)-3-(hydroxyamino)-3-oxoprop-1-en-1-yl)phenyl)-N-phenylacrylamide], for which, in experiment [1], the IC50 stood at 0.37 µM, the “HDAC Inhibition % (1 μM)” value was determined as 77.4% and the “HDAC Inhibition % (10 μM)” value is on record as 95.9%. The compound further registered a GI50 in experiment [2] of 6.3 µM. For the same compound, it took 7 µM to inhibit growth in experiment [3] by half (GI50). Moreover, in experiment [4], growth was halved (GI50) at 5 µM.

Take `O=C(/C=C/c1ccc(/C=C(/C(=O)Nc2ccccc2)c2ccc(OCC3CC3)cc2)cc1)NO` [Example 46, 2-(4-Cyclopropylmethoxyphenyl)-3-(4-((1E)-3-(hydroxyamino)-3-oxoprop-1-en-1-yl)phenyl)-N-phenylacrylamide]: in experiment [1], the IC50 came to 0.019 µM, the “HDAC Inhibition % (1 μM)” value was 73.5% and the “HDAC Inhibition % (10 μM)” value was determined as 98.5%. In experiment [2], this compound registered a 50% growth inhibitory concentration (GI50) of 0.8 µM. This compound also had a GI50 in experiment [3] of 1.6 µM. This compound gave a GI50 in experiment [4] of 2.8 µM.

In the case of `COc1ccc(/C=C(/C(=O)NC2CC2)c2cccc(/C=C/C(=O)NO)c2)cc1OC` [Example 47, N-Cyclopropyl-3-(3,4-dimethoxyphenyl)-2-(3-((1E)-3-(hydroxyamino)-3-oxoprop-1-en-1-yl)phenyl)acrylamide], the “HDAC Inhibition % (1 μM)” value in experiment [1] came to 89.3%. Moreover, the “HDAC Inhibition % (10 μM)” value in experiment [1] worked out at 97.1%. The values for the GI50 in experiment [2], in experiment [3] and in experiment [4] were 14 µM, 15 µM and 20 µM, respectively.

As to `CN(C)C(=O)/C(=C/c1ccc(/C=C/C(=O)Nc2ccccc2N)cc1)c1ccc(F)cc1` [Example 60, 3-(4-((1E)-3-(2-Aminophenylamino)-3-oxoprop-1-en-1-yl)phenyl)-2-(4-fluorophenyl)-N,N-dimethylacrylamide], the “HDAC Inhibition % (1 μM)” value in experiment [1] was 28.3%. Further, the “HDAC Inhibition % (10 μM)” value in experiment [1] came to 34.2%. Moreover, the GI50 in experiment [2] was 29 µM; in experiment [3], 23 µM; in experiment [4], 22 µM.

As to `Nc1ccccc1NC(=O)/C=C/c1ccc(/C=C(/C(=O)NC2CC2)c2ccccc2Cl)cc1` [Example 63, N-Cyclopropyl-3-(4-((1E)-3-(2-aminophenylamino)-3-oxoprop-1-en-1-yl}phenyl)-2-(2-chlorophenyl)acrylamide], the “HDAC Inhibition % (1 μM)” value in experiment [1] is recorded as 27.5%. Moreover, in experiment [1], the “HDAC Inhibition % (10 μM)” value was 49.2%. Also, the values for the GI50 in experiment [2], in experiment [3] and in experiment [4] were 32 µM, 30 µM and above 100 µM, respectively.

In the case of `Nc1ccccc1NC(=O)/C=C/c1ccc(/C=C(/C(=O)NC2CC2)c2ccc3c(c2)OCO3)cc1` [Example 64, N-Cyclopropyl-3-(4-((1E)-3-(2-aminophenylamino)-3-oxoprop-1-en-1-yl}phenyl)-2-[benzodioxol-5-yl]-acrylamide], the “HDAC Inhibition % (1 μM)” value in experiment [1] is listed as 22.6%. In addition, in experiment [1], the “HDAC Inhibition % (10 μM)” value is given as 48.8%. For the same compound, the GI50 is 52 µM in experiment [2], 44 µM in experiment [3] and 78 µM in experiment [4].

With `Nc1ccccc1NC(=O)/C=C/c1ccc(/C=C(/C(=O)NC2CC2)c2ccccc2F)cc1` [Example 65, N-Cyclopropyl-3-(4-((1E)-3-(2-aminophenylamino)-3-oxoprop-1-en-1-yl}phenyl)-2-(2-fluorophenyl)acrylamide], the “HDAC Inhibition % (1 μM)” value in experiment [1] is 31.2%. In experiment [1], the “HDAC Inhibition % (10 μM)” value was 56.2%. The GI50 in experiment [2] is 80 µM; in experiment [3] it was above 100 µM; in experiment [4] it was 82 µM.

For the compound `Nc1ccccc1NC(=O)/C=C/c1ccc(/C=C(/C(=O)NC2CC2)c2cccc(Cl)c2)cc1` [Example 66, N-Cyclopropyl-3-(4-((1E)-3-(2-aminophenylamino)-3-oxoprop-1-en-1-yl}phenyl)-2-(3-chlorophenyl)acrylamide], the “HDAC Inhibition % (1 μM)” value in experiment [1] was determined as 41.6%. Besides, the “HDAC Inhibition % (10 μM)” value in experiment [1] is reported as 72.4%. In addition, the concentration for 50% growth inhibition (GI50) in experiment [2], in experiment [3] and in experiment [4] was above 100 µM in each case.

With `Cc1ccc(/C(=C\c2ccc(/C=C/C(=O)Nc3ccccc3N)cc2)C(=O)NC2CC2)cc1` [Example 67, (E)-N-Cyclopropyl-3-(4-((1E)-3-(2-aminophenylamino)-3-oxoprop-1-en-1-yl}phenyl)-2-(4-methylphenyl)acrylamide], the “HDAC Inhibition % (1 μM)” value in experiment [1] was determined as 31.5%. Besides, the “HDAC Inhibition % (10 μM)” value in experiment [1] stood at 59.5%. The GI50 in experiment [2] is 40 µM; in experiment [3], 36 µM; in experiment [4] it was above 100 µM.

For the compound `COc1cccc(/C(=C\c2ccc(/C=C/C(=O)Nc3ccccc3N)cc2)C(=O)NC2CC2)c1` [Example 69, N-Cyclopropyl-3-(4-((1E)-3-(2-aminophenylamino)-3-oxoprop-1-en-1-yl}phenyl)-2-(3-methoxyphenyl)acrylamide], the “HDAC Inhibition % (1 μM)” value in experiment [1] was 25.5%. Moreover, the “HDAC Inhibition % (10 μM)” value in experiment [1] came out at 54.4%. Moreover, the GI50 in experiment [2] is 74 µM; in experiment [3] it was 94 µM; in experiment [4], above 100 µM.

With `Nc1ccccc1NC(=O)/C=C/c1ccc(/C=C(/C(=O)NC2CC2)c2ccccc2)cc1` [Example 70, N-Cyclopropyl-3-(4-((1E)-3-(2-aminophenylamino)-3-oxoprop-1-en-1-yl}phenyl)-2-phenylacrylamide], the “HDAC Inhibition % (1 μM)” value in experiment [1] is on record as 34.0%. Further, the “HDAC Inhibition % (10 μM)” value in experiment [1] came out at 36.0%. The GI50 in experiment [2], in experiment [3] and in experiment [4] was above 100 µM throughout.

As to `Nc1ccccc1NC(=O)/C=C/c1ccc(/C=C(/C(=O)NC2CC2)c2cccs2)cc1` [Example 71, N-Cyclopropyl-3-(4-((1E)-3-(2-aminophenylamino)-3-oxoprop-1-en-1-yl}phenyl)-2-(thiophen-2-yl)acrylamide], the “HDAC Inhibition % (1 μM)” value in experiment [1] is given as 28.0%. Moreover, the “HDAC Inhibition % (10 μM)” value in experiment [1] is 37.0%. Further, the GI50 in experiment [2] was above 100 µM; in experiment [3], above 100 µM; in experiment [4], 0.6 µM.

Regarding `Nc1ccccc1NC(=O)/C=C/c1ccc(/C=C(/C(=O)N2CCOCC2)c2ccccc2F)cc1` [Example 72], the “HDAC Inhibition % (1 μM)” value in experiment [1] came out at 24.8%. The “HDAC Inhibition % (10 μM)” value in experiment [1] turned out to be 52.0%. For the same compound, the concentration for 50% growth inhibition (GI50) in experiment [2] worked out at 50 µM; in experiment [3] it was 20 µM; in experiment [4], 20 µM.

For `Nc1ccccc1NC(=O)/C=C/c1ccc(/C=C(/C(=O)NC2CC2)c2ccc(F)c(F)c2)cc1` [Example 73, N-Cyclopropyl-3-(4-((1E)-3-(2-aminophenylamino)-3-oxoprop-1-en-1-yl}phenyl)-2-(3,4-difluorophenyl)acrylamide], the “HDAC Inhibition % (1 μM)” value in experiment [1] was determined as 12.0%. Further, in experiment [1], the “HDAC Inhibition % (10 μM)” value amounted to 21.8%. The results for the GI50 in experiment [2], in experiment [3] and in experiment [4] were above 100 µM, 10.1 µM and above 100 µM, respectively.

As to `COc1ccc(/C(=C\c2ccc(/C=C/C(=O)Nc3ccccc3N)cc2)C(=O)NC2CC2)cc1OC` [Example 74, N-Cyclopropyl-3-(4-((1E)-3-(2-aminophenylamino)-3-oxoprop-1-en-1-yl}phenyl)-2-(3,4-dimethoxyphenyl)acrylamide], the “HDAC Inhibition % (1 μM)” value in experiment [1] was 12.3%. The “HDAC Inhibition % (10 μM)” value in experiment [1] was 12.1%. Also, the concentration for 50% growth inhibition (GI50) in experiment [2] is above 100 µM; in experiment [3], 100 µM; in experiment [4], 90 µM.

With `O=C(/C=C/c1ccc(/C=C(/C(=O)NC2CC2)c2ccc(F)cc2)cc1)NCCCCCC(=O)NO` [Example 75, 6-((1E)-3-(4-(3-(Cyclopropylamino)-2-(4-fluorophenyl)-3-oxoprop-1-en-1-yl)phenyl)acrylamido)-N-hydroxyhexanamide], in experiment [1], the “HDAC Inhibition % (1 μM)” value is 70.3%. In experiment [1], the “HDAC Inhibition % (10 μM)” value came out at 94.4%. Also, the GI50 is 38 µM in experiment [2], 23 µM in experiment [3] and 30 µM in experiment [4].

With `O=C(/C=C/c1ccc(/C=C(/C(=O)NC2CC2)c2ccccc2Cl)cc1)NCCCCCC(=O)NO` [Example 77, 6-((1E)-3-(4-(3-(Cyclopropylamino)-2-(2-chlorophenyl)-3-oxoprop-1-en-1-yl)phenyl)acrylamido)-N-hydroxyhexanamide], in experiment [1], the IC50 turned out to be 0.003 µM, the “HDAC Inhibition % (1 μM)” value is listed as 97.8% and the “HDAC Inhibition % (10 μM)” value was determined as 100.0%. This compound also returned a GI50 in experiment [2] of 2.3 µM. The compound also registered a GI50 in experiment [3] of 5 µM. In addition, the GI50 in experiment [4] was determined as 10.5 µM.

In general, IC50 refers to the concentration that inhibits the measured activity by half. Low values mean higher potency, high ones lower potency. As a reminder, the GI50 is the concentration giving 50% growth inhibition. A high value points to less potent growth inhibition.

The values are drawn from patent US8450525B2, “Histone deacetylase inhibitors” (Orchid Chemicals & Pharmaceuticals Limited, priority 2007, dated 2013).
